Reference: ChEMBL document CHEMBL1130231, “Betidamino acid scan of the GnRH antagonist acyline” (J Med Chem, 1997)
Calls of active or inactive are those of the source. The calls are words filed in the database; no cut-off is given here.

What was measured:
Type in all cases: functional, organism-based
[1] = system: Rattus norvegicus; experiment: Ratio of ovulated rats to total number of rats determined in a anti-ovulatory assay by administering 5 microg of compound; 0/8
[2] = system: Rattus norvegicus; experiment: Ratio of ovulated rats to total number of rats determined in a anti-ovulatory assay by administering 2.5 microg of compound; 5/5
[3] = system: Rattus norvegicus; experiment: Ratio of ovulated rats to total number of rats determined in a anti-ovulatory assay by administering 1 microg of compound; 3/3
[4] = system: Rattus norvegicus; experiment: Ratio of ovulated rats to total number of rats determined in a anti-ovulatory assay by administering 2.5 microg of compound; 0/4
[5] = system: Rattus norvegicus; experiment: Ratio of ovulated rats to total number of rats determined in a anti-ovulatory assay by administering 1 ug of compound; 3/3
[6] = system: Rattus norvegicus; experiment: Ratio of ovulated rats to total number of rats determined in a anti-ovulatory assay by administering 2.5 microg of compound; 0/7
[7] = system: Rattus norvegicus; experiment: Ratio of ovulated rats to total number of rats determined in a anti-ovulatory assay by administering 250 microg of compound; 8/9
[8] = system: Rattus norvegicus; experiment: Ratio of ovulated rats to total number of rats determined in a anti-ovulatory assay by administering 10 microg of compound; 1/8
[9] = system: Rattus norvegicus; experiment: Ratio of ovulated rats to total number of rats determined in a anti-ovulatory assay by administering 2.5 microg of compound; 8/8
[10] = system: Rattus norvegicus; experiment: Ratio of ovulated rats to total number of rats determined in a anti-ovulatory assay by administering 0.5 microg of compound; 9/11
[11] = system: Rattus norvegicus; experiment: Ratio of ovulated rats to total number of rats determined in a anti-ovulatory assay by administering 1 microg of compound; 6/17
[12] = system: Rattus norvegicus; experiment: Ratio of ovulated rats to total number of rats determined in a anti-ovulatory assay by administering 2.5 microg of compound; 0/8
[13] = system: Rattus norvegicus; experiment: Ratio of ovulated rats to total number of rats determined in a anti-ovulatory assay by administering 1 ug of compound; 2/8
[14] = system: Rattus norvegicus; experiment: Ratio of ovulated rats to total number of rats determined in a anti-ovulatory assay by administering 250 microg of compound; 3/3
[15] = system: Rattus norvegicus; experiment: Ratio of ovulated rats to total number of rats determined in a anti-ovulatory assay by administering 1 microg of compound; 3/8
[16] = system: Rattus norvegicus; experiment: Ratio of ovulated rats to total number of rats determined in a anti-ovulatory assay by administering 250 microg of compound; 2/2
[17] = system: Rattus norvegicus; experiment: Ratio of ovulated rats to total number of rats determined in a anti-ovulatory assay by administering 1 microg of compound; 0/8
[18] = system: Rattus norvegicus; experiment: Ratio of ovulated rats to total number of rats determined in a anti-ovulatory assay by administering 0.5 microg of compound; 5/8
[19] = system: Rattus norvegicus; experiment: Ratio of ovulated rats to total number of rats determined in a anti-ovulatory assay by administering 5 microg of compound; 0/4
[20] = system: Rattus norvegicus; experiment: Ratio of ovulated rats to total number of rats determined in a anti-ovulatory assay by administering 2.5 microg of compound; 1/7
[21] = system: Rattus norvegicus; experiment: Ratio of ovulated rats to total number of rats determined in a anti-ovulatory assay by administering 1.0 microg of compound; 3/4
[22] = system: Rattus norvegicus; experiment: Ratio of ovulated rats to total number of rats determined in a anti-ovulatory assay by administering 25 microg of compound; 4/8
[23] = system: Rattus norvegicus; experiment: Ratio of ovulated rats to total number of rats determined in a anti-ovulatory assay by administering 10 microg of compound; 8/8
[24] = system: Rattus norvegicus; experiment: Ratio of ovulated rats to total number of rats determined in a anti-ovulatory assay by administering 10 microg of compound; 0/8
[25] = system: Rattus norvegicus; experiment: Ratio of ovulated rats to total number of rats determined in a anti-ovulatory assay by administering 5 microg of compound; 5/8
[26] = system: Rattus norvegicus; experiment: Ratio of ovulated rats to total number of rats determined in a anti-ovulatory assay by administering 1 microg of compound; 5/8
[27] = system: Rattus norvegicus; experiment: Ratio of ovulated rats to total number of rats determined in a anti-ovulatory assay by administering 1 microg of compound; 6/14
[28] = system: Rattus norvegicus; experiment: Ratio of ovulated rats to total number of rats determined in a anti-ovulatory assay by administering 2.5 microg of compound; 0/5
[29] = system: Rattus norvegicus; experiment: Ratio of ovulated rats to total number of rats determined in a anti-ovulatory assay by administering 10 microg of compound; 7/8
[30] = system: Rattus norvegicus; experiment: Ratio of ovulated rats to total number of rats determined in a anti-ovulatory assay by administering 25 microg of compound; 0/8

## CC(=O)Nc1ccc(C[C@H](NC(=O)[C@H](CO)NC(=O)[C@@H](Cc2cccnc2)NC(=O)[C@@H](Cc2ccc(Cl)cc2)NC(=O)[C@H](NC(C)=O)NC(=O)c2ccc3ccccc3c2)C(=O)N[C@H](Cc2ccc(NC(C)=O)cc2)C(=O)N[C@@H](CC(C)C)C(=O)N[C@@H](CCCCNC(C)C)C(=O)N2CCC[C@@H]2C(=O)N[C@H](C)C(N)=O)cc1
[1]
  ov. rat/total: Active
[2]
  ov. rat/total: inactive

## CC(=O)Nc1ccc(C[C@H](NC(=O)[C@H](CO)NC(=O)[C@@H](Cc2cccnc2)NC(=O)[C@@H](Cc2ccc(Cl)cc2)NC(=O)[C@@H](Cc2ccc3ccccc3c2)NC(C)=O)C(=O)N[C@H](Cc2ccc(NC(C)=O)cc2)C(=O)N[C@@H](CC(C)C)C(=O)N[C@@H](CCCCNC(C)C)C(=O)N2CCC[C@@H]2C(=O)N[C@@H](NC=O)C(N)=O)cc1 (single isomer, unassigned)
[3]
  ov. rat/total: inactive
[4]
  ov. rat/total: Active

## CC(=O)Nc1ccc(C[C@H](NC(=O)[C@H](CO)NC(=O)[C@H](NC(=O)c2cccnc2)NC(=O)[C@@H](Cc2ccc(Cl)cc2)NC(=O)[C@@H](Cc2ccc3ccccc3c2)NC(C)=O)C(=O)N[C@H](Cc2ccc(NC(C)=O)cc2)C(=O)N[C@@H](CC(C)C)C(=O)N[C@@H](CCCCNC(C)C)C(=O)N2CCC[C@@H]2C(=O)N[C@H](C)C(N)=O)cc1
[5]
  ov. rat/total: inactive
[6]
  ov. rat/total: Active

## CC(=O)Nc1ccc(C[C@H](NC(=O)[C@H](CO)NC(=O)[C@@H](Cc2cccnc2)NC(=O)[C@@H](NC(=O)c2c[nH]nc2N)NC(=O)[C@@H](Cc2ccc3ccccc3c2)NC(C)=O)C(=O)N[C@H](Cc2ccc(NC(C)=O)cc2)C(=O)N[C@@H](CC(C)C)C(=O)N[C@@H](CCCCNC(C)C)C(=O)N2CCC[C@@H]2C(=O)N[C@H](C)C(N)=O)cc1 (single isomer, unassigned)
[7]
  ov. rat/total: inactive

## CC(=O)Nc1ccc(C[C@H](NC(=O)[C@H](NC(=O)[C@@H](Cc2cccnc2)NC(=O)[C@@H](Cc2ccc(Cl)cc2)NC(=O)[C@@H](Cc2ccc3ccccc3c2)NC(C)=O)N(C)C=O)C(=O)N[C@H](Cc2ccc(NC(C)=O)cc2)C(=O)N[C@@H](CC(C)C)C(=O)N[C@@H](CCCCNC(C)C)C(=O)N2CCC[C@@H]2C(=O)N[C@H](C)C(N)=O)cc1 (single isomer, unassigned)
[8]
  ov. rat/total: Active
[9]
  ov. rat/total: inactive

## CC(=O)Nc1ccc(C[C@H](NC(=O)[C@H](CO)NC(=O)[C@@H](Cc2cccnc2)NC(=O)[C@@H](Cc2ccc(Cl)cc2)NC(=O)[C@@H](Cc2ccc3ccccc3c2)NC(C)=O)C(=O)N[C@H](Cc2ccc(NC(C)=O)cc2)C(=O)N[C@@H](CC(C)C)C(=O)N[C@@H](CCCCNC(C)C)C(=O)N2CCC[C@@H]2C(=O)N[C@H](NC=O)C(N)=O)cc1 (single isomer, unassigned)
[10]
  ov. rat/total: inactive
[11]
  ov. rat/total: Partially active

## CC(=O)Nc1ccc(C[C@H](NC(=O)[C@H](CO)NC(=O)[C@@H](Cc2cccnc2)NC(=O)[C@@H](Cc2ccc(Cl)cc2)NC(=O)[C@@H](NC(C)=O)N(C)C(=O)c2ccc3ccccc3c2)C(=O)N[C@H](Cc2ccc(NC(C)=O)cc2)C(=O)N[C@@H](CC(C)C)C(=O)N[C@@H](CCCCNC(C)C)C(=O)N2CCC[C@@H]2C(=O)N[C@H](C)C(N)=O)cc1 (single isomer, unassigned)
[12]
  ov. rat/total: Active
[13]
  ov. rat/total: Partially active

## CC(=O)Nc1ccc(C[C@H](NC(=O)[C@H](CO)NC(=O)[C@@H](Cc2cccnc2)NC(=O)[C@H](NC(=O)c2cnccn2)NC(=O)[C@@H](Cc2ccc3ccccc3c2)NC(C)=O)C(=O)N[C@H](Cc2ccc(NC(C)=O)cc2)C(=O)N[C@@H](CC(C)C)C(=O)N[C@@H](CCCCNC(C)C)C(=O)N2CCC[C@@H]2C(=O)N[C@H](C)C(N)=O)cc1 (single isomer, unassigned)
[14]
  ov. rat/total: inactive

## CC(=O)Nc1ccc(C[C@H](NC(=O)[C@H](CO)NC(=O)[C@@H](Cc2cccnc2)NC(=O)[C@@H](Cc2ccc(Cl)cc2)NC(=O)[C@@H](Cc2ccc3ccccc3c2)NC(C)=O)C(=O)N[C@H](Cc2ccc(NC(C)=O)cc2)C(=O)N[C@@H](CC(C)C)C(=O)N[C@@H](CCCCNC(C)C)C(=O)N2CCC[C@@H]2C(=O)N[C@H](N)C(N)=O)cc1
[12]
  ov. rat/total: Active
[15]
  ov. rat/total: Partially active

## CC(=O)Nc1ccc(C[C@H](NC(=O)[C@H](CO)NC(=O)[C@@H](Cc2cccnc2)NC(=O)[C@@H](NC(=O)c2cnccn2)NC(=O)[C@@H](Cc2ccc3ccccc3c2)NC(C)=O)C(=O)N[C@H](Cc2ccc(NC(C)=O)cc2)C(=O)N[C@@H](CC(C)C)C(=O)N[C@@H](CCCCNC(C)C)C(=O)N2CCC[C@@H]2C(=O)N[C@H](C)C(N)=O)cc1
[16]
  ov. rat/total: inactive

## CC(=O)Nc1ccc(C[C@H](NC(=O)[C@H](CO)NC(=O)[C@@H](Cc2cccnc2)NC(=O)[C@@H](Cc2ccc(Cl)cc2)NC(=O)[C@@H](Cc2ccc3ccccc3c2)NC(C)=O)C(=O)N[C@H](Cc2ccc(NC(C)=O)cc2)C(=O)N[C@@H](CC(C)C)C(=O)N[C@H](C(=O)N2CCC[C@@H]2C(=O)N[C@H](C)C(N)=O)N(C)C(=O)CCNC(C)C)cc1 (single isomer, unassigned)
[17]
  ov. rat/total: Active
[12]
  ov. rat/total: Active
[18]
  ov. rat/total: Partially active

## CC(=O)Nc1ccc(C[C@H](NC(=O)[C@H](CO)NC(=O)[C@@H](Cc2cccnc2)NC(=O)[C@@H](Cc2ccc(Cl)cc2)NC(=O)[C@@H](Cc2ccc3ccccc3c2)NC(C)=O)C(=O)N[C@H](Cc2ccc(NC(C)=O)cc2)C(=O)N[C@@H](CC(C)C)C(=O)NC(NC(=O)CN=C(N)N)C(=O)N2CCC[C@@H]2C(=O)N[C@H](C)C(N)=O)cc1 (stereo partly drawn)
[19]
  ov. rat/total: Active
[20]
  ov. rat/total: Active
[21]
  ov. rat/total: inactive

## CC(=O)Nc1ccc(C[C@H](NC(=O)[C@H](CO)NC(=O)[C@@H](Cc2cccnc2)NC(=O)[C@@H](Cc2ccc(Cl)cc2)NC(=O)[C@@H](Cc2ccc3ccccc3c2)NC(C)=O)C(=O)N[C@H](C(=O)N[C@@H](CC(C)C)C(=O)N[C@@H](CCCCNC(C)C)C(=O)N2CCC[C@@H]2C(=O)N[C@H](C)C(N)=O)N(C)C(=O)c2ccc(NC(C)=O)cc2)cc1 (mixture of isomers)
[22]
  ov. rat/total: Partially active
[23]
  ov. rat/total: inactive

## CC(=O)Nc1ccc(C[C@H](NC(=O)[C@H](CO)NC(=O)[C@@H](Cc2cccnc2)NC(=O)[C@@H](Cc2ccc(Cl)cc2)NC(=O)[C@@H](Cc2ccc3ccccc3c2)NC(C)=O)C(=O)N[C@H](Cc2ccc(NC(C)=O)cc2)C(=O)N[C@@H](NC(C)=O)C(=O)N[C@@H](CCCCNC(C)C)C(=O)N2CCC[C@@H]2C(=O)N[C@H](C)C(N)=O)cc1
[24]
  ov. rat/total: Active
[25]
  ov. rat/total: Partially active

## CC(=O)Nc1ccc(C[C@@H](NC(=O)[C@H](NC(=O)c2ccc(O)cc2)NC(=O)[C@H](CO)NC(=O)[C@@H](Cc2cccnc2)NC(=O)[C@@H](Cc2ccc(Cl)cc2)NC(=O)[C@@H](Cc2ccc3ccccc3c2)NC(C)=O)C(=O)N[C@@H](CC(C)C)C(=O)N[C@@H](CCCCNC(C)C)C(=O)N2CCC[C@@H]2C(=O)N[C@H](C)C(N)=O)cc1
[26]
  ov. rat/total: Partially active
[12]
  ov. rat/total: Active

## CC(=O)Nc1ccc(C[C@H](NC(=O)[C@H](CO)NC(=O)[C@@H](NC(=O)c2cccnc2)NC(=O)[C@@H](Cc2ccc(Cl)cc2)NC(=O)[C@@H](Cc2ccc3ccccc3c2)NC(C)=O)C(=O)N[C@H](Cc2ccc(NC(C)=O)cc2)C(=O)N[C@@H](CC(C)C)C(=O)N[C@@H](CCCCNC(C)C)C(=O)N2CCC[C@@H]2C(=O)N[C@H](C)C(N)=O)cc1
[27]
  ov. rat/total: Partially active
[28]
  ov. rat/total: Active

## CC(=O)Nc1ccc(C[C@H](NC(=O)[C@H](CO)NC(=O)[C@@H](Cc2cccnc2)NC(=O)[C@@H](Cc2ccc(Cl)cc2)NC(=O)[C@H](NC(C)=O)N(C)C(=O)c2ccc3ccccc3c2)C(=O)N[C@H](Cc2ccc(NC(C)=O)cc2)C(=O)N[C@@H](CC(C)C)C(=O)N[C@@H](CCCCNC(C)C)C(=O)N2CCC[C@@H]2C(=O)N[C@H](C)C(N)=O)cc1
[29]
  ov. rat/total: inactive
[30]
  ov. rat/total: Active
